The results in this text go back to patent US6444194B1, “Indium photosensitizers for PDT” (Miravant Pharmaceuticals, Inc., priority 1997, dated 2002).

The test system of data set [1] is Chinese hamster lung fibroblasts (V-79). As to the kind of experiment: DC(50)(light): colony-formation phototoxicity after laser irradiation. Particulars: V-79 cells; sensitizer incubation 16-24 hours; 12.5 mW/cm^2, total light dose 1.25 J/cm^2; concentration for lethal damage to 50% of cells. It is filed as cell-based. As to the method:
For the Biological Evaluation, Chinese hamster lung fibroblasts (V-79) obtained from the American Tissue Culture Collection were grown in D-MEM supplemented with 10% fetal calf serum at 37° C., 5% CO2, and 95% humidity. These cells were used to evaluate the sensitizers for dark and light toxicity, and cellular uptake. Medium was replaced with 5% fetal calf serum supplemented medium during sensitizer incubations.
In the first phase, the combination of intracellular and extracellular concentration of photosensitizer required for lethal damage to 50% of the cells in culture (DC(50)) on light exposure was determined by plating cells at a density of 100 cells/cm^2 and incubating for 1-3 hours to allow attachment of the cells. Cells were incubated with various concentrations of sensitizer ([C]=0.01-1.0 μM) delivered in non-toxic concentrations of DMSO/5% dextrose solution or in some cases in egg yolk phosphatidase (EYP) for 16-24 hours. The cells were then irradiated with laser light using a tunable Lexel argon pumped dye laser at the band I absorption of the photosensitizer. Total power density was adjusted to 12.5 mW/cm^2 and a total light dose of 1.25 J/cm^2 was applied. After treatment, cells were washed with HBSS, refed with 10% FBS supplemented DMEM with phenol red and incubated for 3-5 days to allow colony formation. Cells were fixed in methanol, stained with Giemsa, and colonies were counted. Plating efficiency was determined using a control colony and the mean percent survival fraction plotted against the sensitizer concentration and the DC50 established (Table 5).

Data set [2] can be described thus: Photophysical measurements of photosensitizers (λmax, ε, φ f). Type of data set: physicochemical. On the set-up: λmax: unit not given here. Particulars: for ε: at λmax; for λmax: band I absorption maximum.
The next data set concerns BA mammary carcinoma. Nature of the data set: In vivo assay of photosensitizers on tumors (PDT tumor cure). Also noted: species or system C3H/HeJ mice. The following applies: light dose 200 J/cm^2, n = 10. As to the method:
Female C3H/HeJ mice (8-9 weeks old) were subjected to trochar implantation of BA mammary carcinoma on the hind leg of the animals. Animals having tumors ca 5 mm in diameter were entered into the in vivo screen. For each new photosensitizer, a group of at least three mice were used to ascertain a drug dose that caused a response as described in table 3 when treated with the appropriate wavelength of light. Generally in this series, animals were injected with 1 μ mole of sensitizer/Kg of body weight, formulated in egg yolk phosphatidate (EYP), via the tail vein. At a defined time period later the animals were irradiated with light from a laser source tuned to the wavelength of activation of the sensitizer. The power density of the laser was set at 75 mW/cm^2 with a total light dose of 200 J/cm^2.

The mark [3] stands for this setting: drug dose 3 μm/Kg via tail vein in EYP, treatment 24 post injection.
Where [4] appears, read: drug dose 0.05 μm/Kg via tail vein in EYP, treatment 24 post injection.

Consider `CCC1=C(CC)c2cc3[nH]c(c(CC)c3CC)c3cccc4c3nc(cc3[nH]c(cc1n2)c(CC)c3CC)C4(CC)CC` [Compound 1, Octaethylbenzochlorin], for which, in data set [1], the IC50 (commonly the midpoint of a concentration-inhibition curve) is above 1000 nM. Also, in data set [2], the φ f worked out at 0.347, the ε is given as 35,000 M^−1 cm^−1 and the λmax came to 658. For the same compound, the “% Cure (30 days)” value in the data set on BA mammary carcinoma (setting [3]) was 60%.

In the case of `CCC1=C(CC)c2cc3[nH]c(c(CC)c3CC)c3cc(C)cc4c3nc(cc3[nH]c(cc1n2)c(CC)c3CC)C4(CC)CC` [Compound 3], in data set [2], the φ f turned out to be 0.35, the ε was 35,000 M^−1 cm^−1 and the λmax was found to be 658. Further, in the data set with BA mammary carcinoma (drug dose 2.5 μm/Kg via tail vein in EYP, treatment 24 post injection), the “% Cure (30 days)” value stood at 60%.

With `CCC1=C(CC)C2=NC1=Cc1c(CC)c(CC)c3[n]1[Zn][n]1c(c(CC)c(CC)c1=c1cccc4c1=NC(=C3)C4(CC)CC)=C2` [Compound 4], the IC50 in data set [1] was above 1000 nM. Besides, in data set [2], the φ f amounted to 0.150, the ε is recorded as 57,000 M^−1 cm^−1 and the λmax was 678. For the same compound, the “% Cure (30 days)” value with BA mammary carcinoma (setting [3]) is 0%.

As to `CCC1=C(CC)C2=NC1=Cc1c(CC)c(CC)c3[n]1[In]([Cl])[n]1c(c(CC)c(CC)c1=c1cc(S(=O)(=O)NCCCO)cc4c1=NC(=C3)C4(CC)CC)=C2` [Compound 10, InOEBCSO2NH(CH2)3OH], the IC50 in data set [1] is 100 to 125 nM. For the same compound, in data set [2], the φ f was 0.027, the ε is 52,000 M^−1 cm^−1 and the λmax was found to be 684. Also, in the data set with BA mammary carcinoma (drug dose 0.1 μm/Kg via tail vein in EYP, treatment 24 post injection), the “% Cure (30 days)” value worked out at 100%.

As for `CCC1=C(CC)C2=NC1=Cc1c(CC)c(CC)c3[n]1[In]([Cl])[n]1c(c(CC)c(CC)c1=c1cc(C)cc4c1=NC(=C3)C4(CC)CC)=C2` [Compound 11], in data set [2], the φ f was found to be 0.034, the ε is listed as 54,000 M^−1 cm^−1 and the λmax was determined as 687. Also, the “% Cure (30 days)” value in the data set on BA mammary carcinoma (drug dose 0.15 μm/Kg via tail vein in EYP, treatment 24 post injection) is recorded as 90%.

For the compound `CCC1=C(CC)C2=NC1=Cc1c(CC)c(CC)c3[n]1[In]([Cl])[n]1c(c(CC)c(CC)c1=c1cc(S(=O)(=O)N(CCO)CCO)cc4c1=NC(=C3)C4(CC)CC)=C2` [Compound 12], in data set [1], the IC50 came out at 40 nM. Also, in data set [2], the φ f entry is “˜0.03”, the ε is listed as 52,000 M^−1 cm^−1 and the λmax was determined as 684. For the same compound, the “% Cure (30 days)” value in the data set with BA mammary carcinoma (setting [4]) came to 90%.

As for `CCC1=C(CC)C2=NC1=Cc1c(CC)c(CC)c3[n]1[In]([Cl])[n]1c(c(CC)c(CC)c1=c1cc(S(=O)(=O)NCCCCCO)cc4c1=NC(=C3)C4(CC)CC)=C2` [Compound 13], the IC50 in data set [1] was 40 nM. In addition, in data set [2], the φ f entry is recorded as “˜0.03”, the ε is 52,000 M^−1 cm^−1 and the λmax is 684. Further, the “% Cure (30 days)” value with BA mammary carcinoma (drug dose 0.075 μm/Kg via tail vein in EYP, treatment 24 post injection) is 80%.

With `CCC1=C(CC)C2=NC1=Cc1c(CC)c(CC)c3[n]1[In]([Cl])[n]1c(c(CC)c(CC)c1=c1cc(S(=O)(=O)NCCN(C)C)cc4c1=NC(=C3)C4(CC)CC)=C2` [Compound 15], in data set [1], the IC50 worked out at 50 nM. Also, in data set [2], the φ f result is reported as “˜0.03”, the ε was 52,000 M^−1 cm^−1 and the λmax is 684. Moreover, in the data set on BA mammary carcinoma (setting [4]), the “% Cure (30 days)” value was 100%.

With `CCC1=C(CC)C2=NC1=Cc1c(CC)c(CC)c3[n]1[In]([Cl])[n]1c(c(CC)c(CC)c1=c1cc(S(=O)(=O)NCCOCCOCCOC)cc4c1=NC(=C3)C4(CC)CC)=C2` [Compound 16], the half-inhibitory concentration (IC50) in data set [1] turned out to be 40 nM. In data set [2], the φ f entry is “˜0.03”, the ε was 52,000 M^−1 cm^−1 and the λmax worked out at 684. Moreover, in the data set with BA mammary carcinoma (setting [4]), the “% Cure (30 days)” value was found to be 80%.

For the compound `CCC1=C(CC)C2=NC1=Cc1c(CC)c(CC)c3[n]1[In]([Cl])[n]1c(c(CC)c(CC)c1=c1cc(S(=O)(=O)NCCCS)cc4c1=NC(=C3)C4(CC)CC)=C2` [Compound 18], in data set [1], the IC50 is 40 nM. In data set [2], the φ f was found to be 0.03, the ε is 52,000 M^−1 cm^−1 and the λmax turned out to be 684.

Regarding `CCC1=C(CC)C2=NC1=Cc1c(CC)c(CC)c3[n]1[In]([Cl])[n]1c(c(CC)c(CC)c1=c1cc(S(=O)(=O)NC(CO)(CO)CO)cc4c1=NC(=C3)C4(CC)CC)=C2` [Compound 19, InOEBCSO2NHC(CH2OH)3], the IC50 in data set [1] is 40 nM. In data set [2], the φ f came out at 0.03, the ε is on record as 52,000 M^−1 cm^−1 and the λmax amounted to 684.

For the compound `CCC1=C(CC)C2=NC1=Cc1c(CC)c(CC)c3[n]1[In]([Cl])[n]1c(c(CC)c(CC)c1=c1cc(S(=O)(=O)NCC(=O)O)cc4c1=NC(=C3)C4(CC)CC)=C2` [Compound 20], the IC50 in data set [1] was found to be 40 nM. Also, in data set [2], the ε is 52,000 M^−1 cm^−1 and the λmax was determined as 684.

Consider `CCC1=C(CC)C2=NC1=Cc1c(CC)c(CC)c3[n]1[In]([Cl])[n]1c(c(CC)c(CC)c1=c1cc(S(=O)(=O)NCCCCC(N)C(=O)O)cc4c1=NC(=C3)C4(CC)CC)=C2` (centres unmarked) [Compound 21, InOEBCSO2NH (CH2)4CH(NH2)CO2H], for which, in data set [1], the IC50 was 40 nM. Besides, in data set [2], the φ f turned out to be 0.03, the ε is reported as 52,000 M^−1 cm^−1 and the λmax is reported as 684.

As to `C=Cc1c(C)c2cc3nc(c4c5[nH]c(cc6nc(cc1[nH]2)C(C)=C6CC)c(C)c5C(=O)C4)[C@@H](CCC(=O)OC)[C@@H]3C` [Compound 22], the “% Cure (30 days)” value in the data set on BA mammary carcinoma (drug dose 10.6 μm/Kg via tail vein in EYP, treatment 3 post injection) is given as 50%.

Consider `C=Cc1c(C)c2[n]3c1=CC1=NC(=Cc4c(C)c5c([n]4[Sn]3([Cl])[Cl])C(=C3N=C(C=2)[C@@H](C)[C@@H]3CCC(=O)OC)CC5=O)C(CC)=C1C` [Compound 23], for which the IC50 in data set [1] is above 1000 nM. Further, in the data set on BA mammary carcinoma (drug dose 2.0 μm/Kg via tail vein in EYP, treatment 24 or 6 post injection), the “% Cure (30 days)” value was determined as 0%.

With `C=Cc1c(C)c2[n]3c1=CC1=NC(=Cc4c(C)c5c([n]4[In]3[Cl])C(=C3N=C(C=2)[C@@H](C)[C@@H]3CCC(=O)OC)CC5=O)C(CC)=C1C` [Compound 24], in the data set with BA mammary carcinoma (drug dose 0.2 μm/Kg via tail vein in EYP, treatment 6 or 8 post injection), the “% Cure (30 days)” value amounted to 80%.

Turning to `CCC1=C(C)C2=NC1=Cc1c(C)c3c4[n]1[In]([Cl])[n]1c(c(C)c(C(C)=O)c1=C2)=CC1=NC(=C4CC3=O)[C@@H](CCC(=O)OC)[C@@H]1C` [Compound 26, Indium 2-desvinyl-2-acetyl pyropheophorbide], the IC50 in data set [1] came to 60 nM. In data set [2], the λmax is reported as 672. The “% Cure (30 days)” value in the data set on BA mammary carcinoma (drug dose 0.125 μm/Kg via tail vein in EYP, treatment 8 post injection) amounted to 90%.

In the case of `CCC1=C(C)C2=NC1=Cc1c(C)c3c4[n]1[Pd][n]1c(c(C)c(C(C)=O)c1=C2)=CC1=NC(=C4CC3=O)[C@@H](CCC(=O)OC)[C@@H]1C` [Compound 28], the concentration for half-maximal inhibition (IC50) in data set [1] came to 50 nM. Moreover, the λmax in data set [2] was 653. Further, in the data set with BA mammary carcinoma (drug dose 0.2 μm/Kg via tail vein in EYP, treatment 8 post injection), the “% Cure (30 days)” value was 80%.

Regarding “Indium 2-desvinyl-2-formyl pyropheophorbide [Compound 27]”, the IC50 in data set [1] came out at 50 nM. The λmax in data set [2] is listed as 683. The “% Cure (30 days)” value with BA mammary carcinoma (drug dose 0.1 μm/Kg via tail vein in EYP, treatment 8 post injection) stood at 90%.
